Patent publication US11174245B2, “Benzimidazole compounds and derivatives as EGFR inhibitors” (Boehringer Ingelheim International GmbH, priority 2018, dated 2021)
Read-outs that look alike come from different tables or passages of the source.

Key:
[1] = target: EGFR (d746-750 T790M C797S) (Homo sapiens (Human), UniProt P00533, C797S/DEL746-750/T790M); assay: Biochemical EGFR inhibition assay (TR-FRET, poly-GT substrate), EGFR d746-750 T790M C797S; settings: 100 μM ATP
Description: (§1) Biochemical EGFR Inhibition Assays
(§2) Initially, the inhibitory effect of compounds according to the invention is measured in biochemical assays which measure the phosphorylation activity of EGFR enzyme forms on poly-GT substrate in the presence of different concentrations of ATP (5 μM and 100 μM final assay concentration).
(§3) The following enzyme forms of EGFR are representative examples that can be used in these assays at the given concentrations:
(§4) For the chosen highest assay concentration of 100 μM, 150 nL of compound solution is transferred from a 10 mM DMSO compound stock solution. A series of eleven fivefold dilutions per compound is transferred to the assay plate, compound dilutions are tested in duplicates. DMSO is added as backfill to a total volume of 150 nL. The assay runs on a fully automated robotic system.
(§5) These biochemical EGFR enzyme form compound dose-response assays quantify the kinase activity via phosphorylation of a tagged poly-GT substrate. The results of the assay are provided as IC50 values.

[2] = target: EGFR del19 T790M C797S protein in Ba/F3 cells (Homo sapiens, UniProt P00533, C797S/DEL746-750/T790M); assay: pEGFR assay (AlphaScreen Surefire, EGFR Tyr1068 phosphorylation); format: cell-based
In short: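 Transduced Ba/F3 cells, puromycin-selected and grown IL-3 independent, were treated with compound at 60.000 cells/well for 4 h at 37° C. Lysis followed for 20 min at room temperature, and Tyr1068 phospho-EGFR in lysate was detected after 2 h dark incubation. Results are IC50 values.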

[3] = target: EGFR (mutated) 695-1022, T790M, C797S, L858R (Homo sapiens (Human), UniProt P00533, C797S/L858R/T790M); assay: Biochemical EGFR inhibition assay (TR-FRET, poly-GT substrate), EGFR T790M C797S L858R
Description: as §1, §2, §3, §4, §5

EGFR wt = EGFR wt (Homo sapiens (Human), UniProt P00533); assay: Biochemical EGFR inhibition assay (TR-FRET, poly-GT substrate), EGFR wt
Description: as §1, §2, §3, §4, §5

[4] = read-out: LR_TM_CS (100 μM ATP) IC50, 100 μM ATP
[5] = read-out: wt (100 μM ATP) IC50, 100 μM ATP
[6] = read-out: LR_TM_CS (5 μM ATP) IC50, 5 μM ATP
[7] = read-out: wt (5 μM ATP) IC50, 5 μM ATP

Sequence of EGFR (d746-750 T790M C797S) (P00533 other isoform, or with tags, fused parts or gaps T790M/C797S/del 1-694/del 746-750 limits assumed): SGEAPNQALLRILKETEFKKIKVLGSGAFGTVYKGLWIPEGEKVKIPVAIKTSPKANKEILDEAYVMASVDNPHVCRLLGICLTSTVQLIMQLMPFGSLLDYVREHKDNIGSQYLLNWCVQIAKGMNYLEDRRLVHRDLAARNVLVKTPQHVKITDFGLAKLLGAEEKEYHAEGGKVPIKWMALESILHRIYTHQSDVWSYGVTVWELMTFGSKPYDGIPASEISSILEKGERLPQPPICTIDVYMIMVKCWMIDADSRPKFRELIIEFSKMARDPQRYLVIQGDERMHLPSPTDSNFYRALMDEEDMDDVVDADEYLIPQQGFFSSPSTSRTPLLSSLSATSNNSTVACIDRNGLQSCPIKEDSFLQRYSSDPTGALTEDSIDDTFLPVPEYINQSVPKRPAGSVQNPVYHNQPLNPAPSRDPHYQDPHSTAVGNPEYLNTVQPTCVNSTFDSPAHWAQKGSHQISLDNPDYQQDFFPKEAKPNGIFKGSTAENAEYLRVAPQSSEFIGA
Sequence of EGFR wt (P00533 25-1210): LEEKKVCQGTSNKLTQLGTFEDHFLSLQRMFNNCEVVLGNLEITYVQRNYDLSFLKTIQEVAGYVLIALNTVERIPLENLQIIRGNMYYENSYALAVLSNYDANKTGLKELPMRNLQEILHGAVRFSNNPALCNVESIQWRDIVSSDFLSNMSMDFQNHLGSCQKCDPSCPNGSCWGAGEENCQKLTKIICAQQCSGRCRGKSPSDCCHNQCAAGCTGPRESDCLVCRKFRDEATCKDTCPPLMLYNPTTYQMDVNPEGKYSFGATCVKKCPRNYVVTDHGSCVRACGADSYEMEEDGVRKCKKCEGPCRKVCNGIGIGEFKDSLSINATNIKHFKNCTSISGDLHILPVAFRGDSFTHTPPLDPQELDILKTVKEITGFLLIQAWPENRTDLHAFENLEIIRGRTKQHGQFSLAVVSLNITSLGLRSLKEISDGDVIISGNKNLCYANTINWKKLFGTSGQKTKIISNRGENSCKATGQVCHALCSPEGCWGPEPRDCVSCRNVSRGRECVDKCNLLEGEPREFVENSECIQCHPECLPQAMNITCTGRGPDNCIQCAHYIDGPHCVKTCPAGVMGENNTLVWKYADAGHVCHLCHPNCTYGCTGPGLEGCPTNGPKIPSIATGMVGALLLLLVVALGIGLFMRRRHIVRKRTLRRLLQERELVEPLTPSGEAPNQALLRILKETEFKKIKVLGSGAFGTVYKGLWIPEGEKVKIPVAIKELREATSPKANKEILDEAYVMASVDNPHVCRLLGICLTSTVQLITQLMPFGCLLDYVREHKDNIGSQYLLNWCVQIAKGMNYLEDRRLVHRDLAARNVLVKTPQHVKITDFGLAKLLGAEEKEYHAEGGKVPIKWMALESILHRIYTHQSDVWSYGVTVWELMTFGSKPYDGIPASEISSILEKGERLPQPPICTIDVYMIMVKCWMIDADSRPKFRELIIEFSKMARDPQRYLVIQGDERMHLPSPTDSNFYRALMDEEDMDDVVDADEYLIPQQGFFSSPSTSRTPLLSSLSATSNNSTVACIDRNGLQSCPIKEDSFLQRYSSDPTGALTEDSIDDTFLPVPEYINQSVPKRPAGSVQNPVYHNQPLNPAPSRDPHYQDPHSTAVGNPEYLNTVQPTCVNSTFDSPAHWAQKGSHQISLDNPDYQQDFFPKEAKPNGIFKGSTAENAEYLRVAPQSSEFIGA
Sequence of EGFR del19 T790M C797S protein in Ba/F3 cells (P00533 with tags, fused parts or gaps C797S/DEL746-750/T790M limits assumed): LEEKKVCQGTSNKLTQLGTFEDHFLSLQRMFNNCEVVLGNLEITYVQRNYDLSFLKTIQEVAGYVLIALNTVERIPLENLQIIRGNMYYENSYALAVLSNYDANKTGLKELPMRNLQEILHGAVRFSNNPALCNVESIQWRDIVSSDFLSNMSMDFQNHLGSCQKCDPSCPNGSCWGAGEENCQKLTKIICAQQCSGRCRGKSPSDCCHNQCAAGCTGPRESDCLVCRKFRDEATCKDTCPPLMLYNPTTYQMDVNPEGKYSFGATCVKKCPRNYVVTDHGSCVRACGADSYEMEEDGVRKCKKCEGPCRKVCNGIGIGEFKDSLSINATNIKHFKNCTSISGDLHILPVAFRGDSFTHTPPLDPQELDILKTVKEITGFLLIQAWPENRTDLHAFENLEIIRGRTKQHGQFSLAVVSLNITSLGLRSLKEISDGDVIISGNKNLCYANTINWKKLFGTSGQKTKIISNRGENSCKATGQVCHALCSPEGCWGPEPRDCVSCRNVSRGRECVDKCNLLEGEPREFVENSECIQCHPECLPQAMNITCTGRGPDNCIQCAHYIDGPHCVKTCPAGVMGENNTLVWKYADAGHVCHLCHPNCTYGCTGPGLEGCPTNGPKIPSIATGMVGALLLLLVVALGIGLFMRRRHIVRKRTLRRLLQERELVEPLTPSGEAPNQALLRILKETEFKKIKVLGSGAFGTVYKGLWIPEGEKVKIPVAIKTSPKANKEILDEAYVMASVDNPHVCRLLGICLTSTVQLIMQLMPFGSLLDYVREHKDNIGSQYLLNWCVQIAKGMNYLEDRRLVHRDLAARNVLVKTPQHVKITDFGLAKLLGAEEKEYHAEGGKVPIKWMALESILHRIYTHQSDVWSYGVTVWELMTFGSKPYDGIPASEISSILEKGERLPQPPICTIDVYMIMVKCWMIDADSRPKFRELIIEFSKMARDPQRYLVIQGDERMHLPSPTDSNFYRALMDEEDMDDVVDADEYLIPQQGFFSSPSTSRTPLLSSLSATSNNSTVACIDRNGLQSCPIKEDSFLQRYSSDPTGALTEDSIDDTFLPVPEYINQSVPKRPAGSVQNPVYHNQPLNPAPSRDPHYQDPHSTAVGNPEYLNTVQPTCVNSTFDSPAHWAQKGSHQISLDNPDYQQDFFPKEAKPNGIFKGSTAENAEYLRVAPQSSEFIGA
Sequence of EGFR (mutated) 695-1022, T790M, C797S, L858R (P00533 695-1022 T790M/C797S/L858R): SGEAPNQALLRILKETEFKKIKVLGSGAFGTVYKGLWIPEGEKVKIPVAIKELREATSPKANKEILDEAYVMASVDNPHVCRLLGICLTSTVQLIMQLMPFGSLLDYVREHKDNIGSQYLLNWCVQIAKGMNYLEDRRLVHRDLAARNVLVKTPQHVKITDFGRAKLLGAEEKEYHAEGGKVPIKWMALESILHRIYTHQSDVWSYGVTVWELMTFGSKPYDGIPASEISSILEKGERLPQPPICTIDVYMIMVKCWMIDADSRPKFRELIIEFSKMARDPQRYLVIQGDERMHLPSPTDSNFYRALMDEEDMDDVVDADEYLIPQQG

SMILES | IC50 [1] [nM] | IC50 [2] [nM] | IC50 [3, 4] [nM] | IC50 (EGFR wt; [5]) [nM] | IC50 [3, 6] [nM] | IC50 (EGFR wt; [7]) [nM]
Cn1cc(-c2cc(C(=O)/N=c3\[nH]c4ccccc4n3CC(C)(C)O)ccn2)cn1 [I-001] | 71.7 | 43 | – | – | – | –
O=C(/N=c1\[nH]c2ccccc2n1C1CCCC1)c1ccnc(-c2cccnc2)c1 [I-002] | 4.6 | 9 | 67.4 | 2510 | – | –
Cn1cc(-c2cc(C(=O)/N=c3\[nH]c4ccccc4n3C3CCCC3)ccn2)cn1 [I-003] | 9.9 | 29 | 61.7 | 4080 | – | –
Cc1c(-c2cc(C(=O)/N=c3\[nH]c4ccccc4n3C3CCCC3)ccn2)cnn1C [I-004] | 4.7 | 13 | 38.5 | 1950 | – | –
Cc1nn(C)cc1-c1cc(C(=O)/N=c2\[nH]c3ccccc3n2C2CCCC2)ccn1 [I-005] | 14.2 | 11 | 105 | 236 | – | –
CC(=O)N1CCC(c2ccc3c(c2)[nH]/c(=N\C(=O)c2ccnc(-c4cnn(C)c4)c2)n3C2CCCC2)CC1 [I-008] | 5 | 6 | 39.6 | > 4000 | 1.5 | 185
Cn1cc(-c2cc(C(=O)/N=c3\[nH]c4ccccc4n3[C@H]3CC[C@@H](O)C3)ccn2)cn1 [I-009] | 49 | 30 | 184 | 12400 | – | –
CN1CCC(c2ccc3c(c2)[nH]/c(=N\C(=O)c2ccnc(-c4cnn(C)c4)c2)n3C2CCCC2)CC1 [I-010] | 2.9 | 20 | 17.4 | 5110 | – | –
CN1CCC(c2ccc3c(c2)[nH]/c(=N\C(=O)c2ccnc(-c4cccnc4)c2)n3C2CCCC2)CC1 [I-011] | 2.5 | 77 | 27.7 | 7060 | – | –
CC(C)Cn1/c(=N/C(=O)c2ccnc(-c3cnn(C)c3)c2)[nH]c2ccccc21 [I-012] | 10.5 | 25 | 64.6 | > 100000 | 1.9 | 403
Cn1cc(-c2cc(C(=O)/N=c3\[nH]c4ccccc4n3[C@H]3CC[C@H](O)C3)ccn2)cn1 [I-013] | 18.4 | 13 | 76.5 | 3770 | – | –
CCCn1/c(=N/C(=O)c2ccnc(-c3cnn(C)c3)c2)[nH]c2ccccc21 [I-014] | 48.8 | 94 | 146 | > 100000 | – | –
Cc1c(-c2cc(C(=O)/N=c3\[nH]c4ccccc4n3CC(C)(C)O)ccn2)cnn1C [I-017] | 14.2 | 7 | 111 | 9960 | 3.9 | 1880
Cn1cc(-c2cc(C(=O)/N=c3\[nH]c4ccccc4n3C3CCC3)ccn2)cn1 [I-019] | 26.3 | 37 | 102 | 4370 | – | –
CN1CCC(c2ccc3c(c2)[nH]/c(=N\C(=O)c2ccnc(-c4cnn(C)c4)c2)n3CC(C)(C)O)CC1 [I-021] | 4.9 | 4 | 27.7 | 876 | – | –
CN1CCN(c2ccc3c(c2)[nH]/c(=N\C(=O)c2ccnc(-c4cnn(C)c4)c2)n3CC(C)(C)O)CC1 [I-022] | 61.8 | 71 | 169 | 5620 | – | –
CC(C)(O)Cn1/c(=N/C(=O)c2ccnc(-c3cnn4ccccc34)c2)[nH]c2ccccc21 [I-023] | 7.7 | 7 | 78.2 | > 100000 | – | –
Cc1c(-c2cc(C(=O)/N=c3\[nH]c4cc(N5CCN(C)CC5)ccc4n3CC(C)(C)O)ccn2)cnn1C [I-025] | 27.9 | 28 | 113 | 7890 | – | –
CC(=O)N1CCC(c2ccc3c(c2)[nH]/c(=N\C(=O)c2ccnc(-c4cnn(C)c4C)c2)n3CC(C)(C)O)CC1 [I-026] | 4.4 | 7 | 34.5 | 1150 | – | –
COc1ccncc1-c1cc(C(=O)/N=c2\[nH]c3cc(C4CCN(C)CC4)ccc3n2CC(C)(C)O)ccn1 [I-028] | 2.4 | 1 | 4.2 | 591 | – | –
CN(C)Cc1ccc2c(c1)[nH]/c(=N\C(=O)c1ccnc(-c3cnn(C)c3)c1)n2CC(C)(C)O [I-029] | 72.4 | 58 | 190 | 14800 | – | –

SMILES | IC50 [1] [nM] | IC50 [2] [nM] | IC50 [3, 4] [nM] | IC50 (EGFR wt; [5]) [nM] | IC50 [3, 6] [nM] | IC50 (EGFR wt; [7]) [nM]
CN1CCC(c2ccc3c(c2)[nH]/c(=N\C(=O)c2ccnc(-n4cnc5cccc(F)c54)c2)n3CC(C)(C)O)CC1 [I-030] | 3.4 | 6 | 25.5 | 1960 | – | –
COc1ccncc1-c1cc(C(=O)/N=c2\[nH]c3cc(C4CCN(C(C)=O)CC4)ccc3n2CC(C)(C)O)ccn1 [I-031] | 1.2 | 1 | – | – | – | –
CN1CCC(c2ccc3c(c2)[nH]/c(=N\C(=O)c2ccnc(-c4cnn5cccnc45)c2)n3CC(C)(C)O)CC1 [I-032] | 0.6 | 1 | 3 | 366 | – | –
Cc1ccc2c(c1)[nH]/c(=N\C(=O)c1ccnc(-c3cnn(C)c3)c1)n2CC(C)(C)O [I-033] | 8.6 | 9 | 91.6 | 9510 | – | –
Cc1ccc2[nH]/c(=N\C(=O)c3ccnc(-c4cnn(C)c4)c3)n(CC(C)(C)O)c2c1 [I-034] | 22.8 | 21 | 196 | 3950 | – | –
CN1CCC(c2ccc3c(c2)[nH]/c(=N\C(=O)c2ccnc(-c4cnn(C)c4)c2)n3CC(C)(C)O)CC1=O (stereo not drawn) [I-035] | 5.6 | 79 | 79.3 | 6670 | – | –
Cn1cc(-c2cc(C(=O)/N=c3\[nH]c4ccccc4n3[C@H]3CC[C@H](O)CC3)ccn2)cn1 [I-036] | 4 | 3 | 40.1 | 1250 | 1.6 | 407
Cn1cc(-c2cc(C(=O)/N=c3\[nH]c4ccccc4n3CCC(C)(C)O)ccn2)cn1 [I-037] | 14.2 | 15 | 171 | > 100000 | – | –
Cn1cc(-c2cc(C(=O)/N=c3\[nH]c4ccccc4n3CC(C)(C)CO)ccn2)cn1 [I-038] | 15.8 | 27 | 234 | 40800 | – | –
CC(C)(O)Cn1/c(=N/C(=O)c2ccnc(-n3cnc4ccccc43)c2)[nH]c2ccccc21 [I-039] | 36 | 9 | 508 | > 100000 | – | –
CC(C)(O)Cn1/c(=N/C(=O)c2ccnc(-c3cccnc3)c2)[nH]c2cc(C3CCCOC3)ccc21 (stereo not drawn) [I-052] | 6.6 | 6 | 189 | > 100000 | – | –
Cn1cc(-c2cc(C(=O)/N=c3\[nH]c4cc(C5CCCOC5)ccc4n3CC(C)(C)O)ccn2)cn1 (stereo not drawn) [I-053] | 8.7 | 2 | 94.1 | 5740 | – | –
COC(=O)Cc1ccc2c(c1)[nH]/c(=N\C(=O)c1ccnc(-c3cccnc3)c1)n2CC(C)(C)O [I-054] | 4.1 | 7 | 104 | 79700 | – | –
COC(=O)Cc1ccc2c(c1)[nH]/c(=N\C(=O)c1ccnc(-c3cnn(C)c3)c1)n2CC(C)(C)O [I-055] | 7.3 | 10 | 86.9 | 26300 | – | –
Cn1cc(-c2cc(C(=O)/N=c3\[nH]c4ccccc4n3[C@H]3CC[C@@H](O)CC3)cc(N)n2)cn1 [I-211] | – | 1 | – | – | 0.3 | 249
Cn1cc(-c2cc(C(=O)/N=c3\[nH]c4ccccc4n3C3CCCS(=O)(=O)C3)ccn2)cn1 (stereo not drawn) [I-212] | – | 22 | – | – | 2.5 | 318
Cc1cc(C(=O)/N=c2\[nH]c3ccc(CN4CCOCC4)cc3n2CC(C)(C)O)cc(-c2cnn(C)c2)n1 [I-213] | – | 45 | – | – | 54.1 | > 100000
Cc1cc(C(=O)/N=c2\[nH]c3ccc(CN4CCN(C)CC4)cc3n2CC(C)(C)O)cc(-c2cnn(C)c2)n1 [I-214] | – | 38 | – | – | 10.1 | 9660
CNc1cc(C(=O)/N=c2\[nH]c3ccccc3n2[C@H]2CC[C@@H](O)CC2)cc(-c2cnn(C)c2)n1 [I-215] | – | 14 | – | – | 4.9 | 8380
Cn1cc(-c2cc(C(=O)/N=c3\[nH]c4ccccc4n3[C@H]3CC[C@@H](O)CC3)cc(CF)n2)cn1 [I-216] | – | 17 | – | – | 8.1 | 2670
Cc1cc(C(=O)/N=c2\[nH]c3ccccc3n2C2CCCS(=O)(=O)C2)cc(-c2cnn(C)c2)n1 (stereo not drawn) [I-217] | – | 75 | – | – | 33 | > 100000
